According to patent US9725414B2, “Fungicidal N-bicycloalkyl and N-tricycloalkyl pyrazole-4-(thio)carboxamide derivatives” (priority 2011, dated 2017):
One block for each molecule: values may come before it.

What was measured:
Alternaria brassicae = assay: Example D: in vivo preventive test on Alternaria brassicae (leaf spot on radish); conditions: 500 ppm of active ingredient, grading 6 days after contamination
Method: In Vivo Preventive Test on Alternaria brassicae (Leaf Spot on Radish) […] Radish plants (“Pernod Clair” variety), sown in starter cups on a 50/50 peat soil pozzolana substrate and grown at 17° C., are treated at the cotyledon stage by spraying with the active ingredient prepared as described above. Plants, used as controls, are treated with the mixture of acetone/tween/DMSO/water not containing the active material. After 24 hours, the plants are contaminated by spraying the cotyledons with an aqueous suspension of Alternaria brassicae spores (50 000 spores per mL). The spores are collected from a 15-day-old culture. The contaminated radish plants are incubated at 20° C. and at 100% relative humidity. Grading (% of efficacy) is carried out 6 days after the contamination, in comparison with the control plants.

Septoria tritici = assay: Example I: in vivo preventive test on Septoria tritici (wheat), acetone/tween/DMSO preparation; conditions: 500 ppm of active ingredient, grading 24 days after contamination
Method: In Vivo Preventive Test on Septoria tritici (Wheat) […] Wheat plants (“Scipion” variety), sown in starter cups on a 50/50 peat soil pozzolana substrate and grown at 22° C., are treated at the 1 leaf stage (10 cm height) by spraying with the active ingredient prepared as described above. Plants, used as controls, are treated with the mixture of acetone/tween/DMSO/water not containing the active material. After 24 hours, the plants are contaminated by spraying the leaves with an aqueous suspension of cryopreserved Septoria tritici spores (500 000 spores per mL). The contaminated wheat plants are incubated for 72 hours at 18° C. and at 100% relative humidity, and then for 21 days at 90% relative humidity. Grading (% of efficacy) is carried out 24 days after the contamination, in comparison with the control plants.

Pyrenophora teres [1] = assay: Example E: in vivo preventive test on Pyrenophora teres (barley), DMF/emulsifier preparation; conditions: 500 ppm of active ingredient, evaluated 7-9 days after inoculation
Method: In Vivo Preventive Test on Pyrenophora teres (Barley) Solvent: 49 parts by weight of N,N-dimethylformamide Emulsifier: 1 part by weight of alkylaryl polyglycol ether To produce a suitable preparation of active compound, 1 part by weight of active compound is mixed with the stated amounts of solvent and emulsifier, and the concentrate is diluted with water to the desired concentration. To test for preventive activity, young plants are sprayed with the preparation of active compound at the stated rate of application. One day after this treatment, the plants are inoculated with an aqueous spore suspension of Pyrenophora teres. The plants remain for 48 hours in an incubation cabinet at 22° C. and a relative atmospheric humidity of 100%.

Alternaria solani = assay: Example C: in vivo preventive test on Alternaria solani (tomato); conditions: 500 ppm of active ingredient, evaluated 7 days after inoculation
Method: In Vivo Preventive Test on Alternaria solani (Tomato) Solvent: 49 parts by weight of N,N-dimethylformamide Emulsifier: 1 part by weight of alkylarylpolyglycolether To produce a suitable preparation of active compound, 1 part by weight of active compound is mixed with the stated amounts of solvent and emulsifier, and the concentrate is diluted with water to the desired concentration. To test for preventive activity, young plants are sprayed with the preparation of active compound at the stated rate of application. One day after this treatment, the plants are inoculated with an aqueous spore suspension of Alternaria solani. The plants remain for one day in an incubation cabinet at approximately 22° C. and a relative atmospheric humidity of 100%. Then the plants are placed in an incubation cabinet at approximately 20° C. and a relative atmospheric humidity of 96%.

Uromyces appendiculatus = assay: Example Q: in vivo preventive test on Uromyces appendiculatus (bean rust); conditions: Uromyces appendiculatus on bean plants, 500 ppm of active ingredient, grading 11 days after contamination
Method: In Vivo Preventive Test on Uromyces appendiculatus (Bean Rust) […] Bean plants (“Saxa” variety), sown in starter cups on a 50/50 peat soil pozzolana substrate and grown at 24° C., are treated at the 2 leaf stage (9 cm height) by spraying with the active ingredient prepared as described above. Plants, used as controls, are treated with the mixture of acetone/tween/DMSO/water not containing the active material. After 24 hours, the plants are contaminated by spraying the leaves with an aqueous suspension of Uromyces appendiculatus spores (150 000 spores per mL). The spores are collected from infected plants and are suspended in water containing 2.5 mL/L of Tween 80 at 10%. […] Grading (% of efficacy) is carried out 11 days after the contamination, in comparison with the control plants.

Puccinia recondita = assay: Example M: in vivo preventive test on Puccinia recondita (brown rust on wheat); conditions: 500 ppm of active ingredient, grading 12 days after contamination
Method: In Vivo Preventive Test on Puccinia recondita (Brown Rust on Wheat) […] Wheat plants (“Scipion” variety), sown in starter cups on a 50/50 peat soil pozzolana substrate and grown at 22° C., are treated at the 1 leaf stage (10 cm height) by spraying with the active ingredient prepared as described above. Plants, used as controls, are treated with the mixture of acetone/tween/DMSO/water not containing the active material. After 24 hours, the plants are contaminated by spraying the leaves with an aqueous suspension of Puccinia recondite spores (100 000 spores per mL). The spores are collected from an infected plant and are suspended in water containing 2.5 mL/L of Tween 80 at 10%. […] Grading (% of efficacy) is carried out 12 days after the contamination, in comparison with the control plants.

Sphaerotheca fuliginea = assay: Example B: in vivo preventive test on Sphaerotheca fuliginea (powdery mildew on cucurbits), gherkin plants; conditions: 500 ppm of active ingredient, grading 12 days after contamination
Method: In Vivo Preventive Test on Sphaerotheca fuliginea (Powdery Mildew on Cucurbits) […] Gherkin plants (“Vert petit de Paris” variety), sown in starter cups on a 50/50 peat soil-pozzolana substrate and grown at 24° C. are treated at the Z11 cotyledon stage by spraying with the active ingredient prepared as described above. Plants, used as controls, are treated with the mixture of acetone/tween/DMSO/water not containing the active material. After 24 hours, the plants are contaminated by spraying the cotyledons with an aqueous suspension of Sphaerotheca fuliginea spores (100 000 spores per mL). The spores are collected from infected plants.

Pyrenophora teres [2] = assay: Example F: in vivo preventive test on Pyrenophora teres (barley), acetone/tween/DMSO preparation; conditions: 500 ppm of active ingredient, barley, grading 14 days after contamination
Method: In Vivo Preventive Test on Pyrenophora teres (Barley) […] Barley plants (“Plaisant” variety), sown in starter cups on a 50/50 peat soil pozzolana substrate and grown at 22° C., are treated at the 1 leaf stage (10 cm height) by spraying with the active ingredient prepared as described above. Plants, used as controls, are treated with the mixture of acetone/tween/DMSO/water not containing the active material. After 24 hours, the plants are contaminated by spraying the leaves with an aqueous suspension of Pyrenophora teres spores (12 000 spores per mL). The spores are collected from a 12-day-old culture. […] Grading (% of efficacy) is carried out 14 days after the contamination, in comparison with the control plants.

Botrytis cinerea = assay: Example P: in vivo preventive test on Botrytis cinerea (grey mould), gherkin plants; conditions: 500 ppm of active ingredient, grading 4 to 5 days after contamination
Method: In Vivo Preventive Test on Botrytis cinerea (Grey Mould) […] Gherkin plants (“Vert petit de Paris” variety), sown in starter cups on a 50/50 peat soil pozzolana substrate and grown at 24° C. are treated at the Z11 cotyledon stage by spraying with the active ingredient prepared as described above. Plants, used as controls, are treated with the mixture of acetone/tween/DMSO/water not containing the active material. After 24 hours, the plants are contaminated by spraying the cotyledons with an aqueous suspension of cryopreserved Botrytis cinerea spores (50 000 spores per mL). The spores are suspended in a nutrient solution composed of 10 g/L of PDB, 50 g/L of D-Fructose, 2 g/L of NH4NO3 and 1 g/L of KH2PO4. The contaminated gherkin plants are incubated at 17° C. and at 90% relative humidity. Grading (% of efficacy) is carried out 4 to 5 days after the contamination, in comparison with the control plants.

[3] = log P by HPLC on reversed-phase column (C 18), EEC Directive 79831 Annex V.A8; format: physicochemical; conditions: HPLC reversed-phase C 18, 40° C., 0.1% aqueous formic acid and acetonitrile gradient; several values = mixture of two or more isomers
Method: In table 1, the log P values were determined in accordance with EEC Directive 79831 Annex V.A8 by HPLC (High Performance Liquid Chromatography) on a reversed-phase column (C 18), using the method described below: Temperature: 40° C.; Mobile phases: 0.1% aqueous formic acid and acetonitrile; linear gradient from 10% acetonitrile to 90% acetonitrile. Calibration was carried out using unbranched alkan-2-ones (comprising 3 to 16 carbon atoms) with known log P values (determination of the log P values by the retention times using linear interpolation between two successive alkanones). lambda-max-values were determined using UV-spectra from 200 nm to 400 nm and the peak values of the chromatographic signals.

Compound: Cn1nc(C(F)F)c(C(=O)N(C2CC2)C2CCC3CCCC3C2)c1F (mixture of isomers) [Example 22]
Efficacy (Alternaria brassicae): 93%
Efficacy (Septoria tritici): 88%
Efficacy (Pyrenophora teres [1]): 100%
Efficacy (Alternaria solani): 100%
Efficacy (Uromyces appendiculatus): 100%
Efficacy (Puccinia recondita): 100%
Efficacy (Sphaerotheca fuliginea): 100%

Compound: CC(C1CC2C=CC1C2)N(C(=O)c1c(C(F)F)nn(C)c1F)C1CC1 (mixture of isomers) [Example 101]
Efficacy (Alternaria brassicae): 92%
Efficacy (Septoria tritici): 100%
Efficacy (Pyrenophora teres [2]): 100%
Efficacy (Botrytis cinerea): 98%
Efficacy (Sphaerotheca fuliginea): 100%

Compound: CC(C1CC2C=CC1C2)N(C(=O)c1cn(C)nc1C(F)F)C1CC1 (mixture of isomers) [Example 102]
Efficacy (Alternaria brassicae): 92%
Efficacy (Septoria tritici): 75%
Efficacy (Pyrenophora teres [2]): 100%
Efficacy (Uromyces appendiculatus): 92%
Efficacy (Puccinia recondita): 90%
Efficacy (Botrytis cinerea): 95%
Efficacy (Sphaerotheca fuliginea): 100%

Compound: Cn1cc(C(=O)N(C2CC2)C2CCC3CCCC32)c(C(F)F)n1 (centres unmarked) [Example 6]
Efficacy (Alternaria brassicae): 100%
Efficacy (Pyrenophora teres [2]): 100%
Efficacy (Uromyces appendiculatus): 77%
logP [3]: 3.02
Efficacy (Botrytis cinerea): 100%
Efficacy (Sphaerotheca fuliginea): 100%

Compound: Cn1cc(C(=O)N(C2CC2)C2CCC3CCCC32)c(C(F)F)n1 (centres unmarked) [Example 7]
Efficacy (Alternaria brassicae): 80%
Efficacy (Septoria tritici): 97%
Efficacy (Pyrenophora teres [2]): 100%
Efficacy (Uromyces appendiculatus): 94%
logP [3]: 3.19
Efficacy (Puccinia recondita): 98%
Efficacy (Sphaerotheca fuliginea): 100%

Compound: Cn1nc(C(F)F)c(C(=O)N(C2CC2)C2CCCC3CCCCC32)c1Cl (centres unmarked) [Example 32]
Efficacy (Alternaria brassicae): 100%
Efficacy (Septoria tritici): 80%
Efficacy (Pyrenophora teres [2]): 97%
Efficacy (Uromyces appendiculatus): 89%
logP [3]: 4.68
Efficacy (Puccinia recondita): 98%
Efficacy (Sphaerotheca fuliginea): 100%

Compound: Cn1nc(C(F)F)c(C(=O)N(CC2CCCC3CCCCC32)C2CC2)c1Cl (centres unmarked) [Example 67]
Efficacy (Alternaria brassicae): 97%
Efficacy (Septoria tritici): 94%
Efficacy (Pyrenophora teres [2]): 98%
Efficacy (Uromyces appendiculatus): 87%
logP [3]: 5.08
Efficacy (Puccinia recondita): 97%
Efficacy (Sphaerotheca fuliginea): 100%

Compound: Cn1cc(C(=O)N(CC2(Cc3ccccc3)CC3CCC2C3)C2CC2)c(C(F)F)n1 (centres unmarked) [Example 70]
Efficacy (Alternaria brassicae): 91%
Efficacy (Septoria tritici): 96%
Efficacy (Pyrenophora teres [2]): 79%
Efficacy (Uromyces appendiculatus): 88%
logP [3]: 4.32
Efficacy (Botrytis cinerea): 100%
Efficacy (Sphaerotheca fuliginea): 98%

Compound: Cn1cc(C(=O)NCC2C3CC4CC(C3)CC2C4)c(C(F)F)n1 (centres unmarked) [Example 92]
Efficacy (Alternaria brassicae): 96%
Efficacy (Septoria tritici): 83%
logP [3]: 3.27
Efficacy (Botrytis cinerea): 100%

Now from value to molecule, other results behind:

logP [3]: 3.09
Compound: Cn1nc(C(F)F)c(C(=O)NC2CCC3CCCC32)c1Cl (centres unmarked) [Example 3]
Efficacy (Alternaria brassicae): 90%
Efficacy (Septoria tritici): 92%
Efficacy (Uromyces appendiculatus): 100%
Efficacy (Puccinia recondita): 75%
Efficacy (Botrytis cinerea): 95%

logP [3]: 3.55
Compound: Cn1nc(C(F)F)c(C(=O)N(C2CC2)C2CCC3CCCC32)c1F (centres unmarked) [Example 4]
Efficacy (Alternaria brassicae): 100%
Efficacy (Pyrenophora teres [2]): 100%
Efficacy (Puccinia recondita): 78%
Efficacy (Botrytis cinerea): 80%

logP [3]: 3.65
Compound: Cn1nc(C(F)F)c(C(=O)N(C2CC2)C2CCC3CCCC32)c1F (centres unmarked) [Example 5]
Efficacy (Alternaria brassicae): 100%
Efficacy (Septoria tritici): 100%
Efficacy (Pyrenophora teres [2]): 97%
Efficacy (Uromyces appendiculatus): 100%
Efficacy (Puccinia recondita): 100%
Efficacy (Sphaerotheca fuliginea): 98%

logP [3]: 3.72
Compound: CON(C(=O)c1c(C(F)F)nn(C)c1F)C1CCC2CCCCC21 (centres unmarked) [Example 10]
Efficacy (Alternaria brassicae): 100%
Efficacy (Septoria tritici): 93%
Efficacy (Pyrenophora teres [2]): 93%
Efficacy (Uromyces appendiculatus): 100%
Efficacy (Puccinia recondita): 100%
Efficacy (Sphaerotheca fuliginea): 100%

logP [3]: 3.61
Compound: CC1C(NC(=O)c2c(C(F)F)nn(C)c2F)CC2CC1C2(C)C (centres unmarked) [Example 49]
Efficacy (Alternaria brassicae): 96%
Efficacy (Pyrenophora teres [2]): 88%
Efficacy (Botrytis cinerea): 98%

logP [3]: 3.61
Compound: CC1C(NC(=O)c2c(C(F)F)nn(C)c2F)CC2CC1C2(C)C (centres unmarked) [Example 50]
Efficacy (Alternaria brassicae): 80%
Efficacy (Septoria tritici): 97%
Efficacy (Pyrenophora teres [2]): 88%
Efficacy (Botrytis cinerea): 99%
Efficacy (Sphaerotheca fuliginea): 90%

logP [3]: 3.68
Compound: Cn1nc(C(F)F)c(C(=O)NCC2C3CC4CC(C3)CC2C4)c1F (centres unmarked) [Example 90]
Efficacy (Alternaria brassicae): 90%
Efficacy (Septoria tritici): 92%
Efficacy (Pyrenophora teres [2]): 81%
Efficacy (Botrytis cinerea): 100%

logP [3]: 3.90
Compound: Cn1nc(C(F)F)c(C(=O)NCC2C3CC4CC(C3)CC2C4)c1Cl (centres unmarked) [Example 91]
Efficacy (Alternaria brassicae): 96%
Efficacy (Pyrenophora teres [2]): 75%
Efficacy (Botrytis cinerea): 99%
